Measurements: paper PMC12352620, “Fragment-based discovery of dual ligand pharmacophores for lipid-sensing transcription factors for designed polypharmacology” (RSC Medicinal Chemistry, 2025)

Experiments:
Type in all cases: cell-based
THRα = target: T1, THRα (Homo sapiens, UniProt P10827); experiment: Gal4-hybrid reporter gene assay THRα; conditions: for EC50 / EC50 THRα: HEK293T, Gal4-hybrid reporter, Inactive = tested 1–300 μM; for max. fold activation THRα: maximum reporter activation vs DMSO (0.1%) treated cells
T1 construct: expressed in transfected cells; host or cells: HEK293T
T1 sequence (P10827 128-410 isoform P10827-2 limits assumed): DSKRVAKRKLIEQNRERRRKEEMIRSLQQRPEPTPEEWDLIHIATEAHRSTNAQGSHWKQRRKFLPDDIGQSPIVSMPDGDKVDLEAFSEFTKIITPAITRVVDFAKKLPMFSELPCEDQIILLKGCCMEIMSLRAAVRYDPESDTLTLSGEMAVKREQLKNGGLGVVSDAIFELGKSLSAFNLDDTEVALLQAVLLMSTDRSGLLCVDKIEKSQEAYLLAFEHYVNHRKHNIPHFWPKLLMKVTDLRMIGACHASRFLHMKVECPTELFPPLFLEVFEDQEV
Protocol: (§1) NR modulation was determined as described previously[45] in Gal4 hybrid reporter gene assays in HEK293T cells (German Collection of Microorganisms and Cell Culture GmbH, DSMZ) using pFR-Luc (Stratagene, La Jolla, CA, USA; reporter), pRL-SV40 (Promega, Madison, WI, USA; internal control) and the hybrid receptor clones pFA-CMV-hTHRα-LBD,[46] pFA-CMV-hPPARγ-LBD,[47] pFA-CMV-hFXR-LBD,[48] and pFA-CMV-hRXRα-LBD,[49] coding for the hinge region and ligand binding domain of the canonical isoform of the respective NR. Cells were cultured in Dulbecco's modified Eagle's medium (DMEM), high glucose supplemented with 10% fetal calf serum (FCS), sodium pyruvate (1 mM), penicillin (100 U mL^−1), and streptomycin (100 μg mL^−1) at 37 °C and 5% CO2 and seeded in 96-well plates (3 × 10^4 cells per well). After 24 h, medium was changed to Opti-MEM without supplements and cells were transiently transfected using Lipofectamine LTX reagent (Invitrogen, Carlsbad, CA, USA) according to the manufacturer's protocol. Five hours after transfection, cells were incubated with the test compounds in Opti-MEM supplemented with penicillin (100 U mL^−1), streptomycin (100 μg mL^−1) and 0.1% DMSO for 16 h before luciferase activity was measured using the Dual-Glo Luciferase Assay System (Promega) according to the manufacturer's protocol on a Tecan Spark luminometer (Tecan Deutschland GmbH, Crailsheim, Germany). Firefly luminescence was divided by Renilla luminescence and multiplied by 1000 resulting in relative light units (RLU) to normalize for transfection efficiency and cell growth. Fold activation was obtained by dividing the mean RLU of test compound by the mean RLU of the untreated control. All samples were tested in at least three biologically independent experiments in duplicates. For dose–response curve fitting and calculation of EC50 values, the equation “[agonist] vs. response − variable slope (four parameters)” was used in GraphPad Prism (version 7.00, GraphPad Software, La Jolla, CA, USA). For selectivity profiling, the hybrid reporter gene assay was performed with Gal4 fusion receptor plasmids for RARα, PPARα, PPARδ, VDR, CAR and LXRα. The following reference agonists were used: triiodothyronine (1 μM, THR), all-trans retinoic acid (1 μM, RAR), GW7647 (1 μM, PPARα), pioglitazone (1 μM, PPARγ), L165041 (1 μM, PPARδ), calcitriol (1 μM, VDR), CITCO (1 μM, CAR), T0901317 (1 μM, LXR), GW4064 (1 μM, FXR), bexarotene (1 μM, RXR).

FXR = target: T2, FXR (Homo sapiens, UniProt Q96RI1); experiment: Gal4-hybrid reporter gene assay FXR; conditions: mean ± S.E.M., n ≥ 3; for EC50 / EC50 FXR: HEK293T, Gal4-hybrid reporter, Inactive = tested 1–300 μM; for max. fold activation FXR: maximum reporter activation vs DMSO (0.1%) treated cells
T2 construct: expressed in transfected cells; host or cells: HEK293T
T2 sequence (Q96RI1 262-486 limits assumed): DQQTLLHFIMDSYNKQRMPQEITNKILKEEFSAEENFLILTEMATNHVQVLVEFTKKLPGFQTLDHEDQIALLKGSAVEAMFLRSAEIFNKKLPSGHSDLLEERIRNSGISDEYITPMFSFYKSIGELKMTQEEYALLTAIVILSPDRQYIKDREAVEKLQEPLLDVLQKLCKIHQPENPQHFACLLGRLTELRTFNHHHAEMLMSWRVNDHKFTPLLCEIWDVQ
Protocol: as §1

PPARγ = target: T3, PPARγ (Homo sapiens, UniProt P37231); experiment: Gal4-hybrid reporter gene assay PPARγ; conditions: mean ± S.E.M., n ≥ 3; for max. fold activation PPARγ: maximum reporter activation vs DMSO (0.1%) treated cells
T3 construct: expressed in transfected cells; host or cells: HEK293T
T3 sequence (P37231 238-503 limits assumed): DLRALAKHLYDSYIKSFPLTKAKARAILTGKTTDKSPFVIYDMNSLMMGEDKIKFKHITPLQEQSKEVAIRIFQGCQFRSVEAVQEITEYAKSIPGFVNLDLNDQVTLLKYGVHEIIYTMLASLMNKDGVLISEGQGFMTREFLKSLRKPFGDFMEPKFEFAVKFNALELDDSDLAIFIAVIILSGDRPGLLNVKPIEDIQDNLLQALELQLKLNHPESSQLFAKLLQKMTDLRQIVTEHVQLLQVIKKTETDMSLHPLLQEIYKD
Protocol: as §1

RXRα = target: T4, RXRα (Homo sapiens, UniProt P19793); experiment: Gal4-hybrid reporter gene assay RXRα; conditions: mean ± S.E.M., n ≥ 3; for EC50 / EC50 RXRα: HEK293T, Gal4-hybrid reporter, Inactive = tested 1–300 μM; for max. fold activation RXRα: maximum reporter activation vs DMSO (0.1%) treated cells
T4 construct: expressed in transfected cells; host or cells: HEK293T
T4 sequence (P19793 227-458 limits assumed): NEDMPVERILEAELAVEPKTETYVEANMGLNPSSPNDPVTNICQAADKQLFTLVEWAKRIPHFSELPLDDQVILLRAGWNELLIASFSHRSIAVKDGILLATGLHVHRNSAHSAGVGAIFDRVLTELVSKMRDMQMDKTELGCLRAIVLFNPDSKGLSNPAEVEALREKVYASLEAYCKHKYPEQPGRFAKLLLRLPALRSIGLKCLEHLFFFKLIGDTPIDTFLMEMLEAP
Protocol: as §1

[1] = HEK293T, Gal4-hybrid reporter, Inactive = tested 1–300 μM

Row | SMILES | EC50 (THRα; mean ± S.E.M., n ≥ 3) | max. fold activation THRα (THRα; mean ± S.E.M., n ≥ 3) | EC50 (FXR) | max. fold activation FXR (FXR) | EC50 (PPARγ; [1]) | max. fold activation PPARγ (PPARγ) | EC50 (RXRα) | max. fold activation RXRα (RXRα) | EC50 THRα (THRα; mean ± S.E.M., n ≥ 3) | EC50 FXR (FXR) | EC50 RXRα (RXRα) | type of activity on THRα (THRα; Gal4-hybrid reporter gene assay) | remaining THRα activity (THRα; inverse agonism, % remain., mean ± S.E.M., n ≥ 3) | IC50 (THRα; inverse agonism, mean ± S.E.M., n ≥ 3) | EC50 PPARγ (PPARγ; [1])
1 | O=C(O)/C=C/C=C/c1ccc2c(c1)OCO2 [2.6] | 225 ± 91 µM | (5.0 ± 1.4-fold) | 138 ± 44 µM | (5.2 ± 0.8-fold) | 137 ± 8 µM | (9.3 ± 0.5-fold) | 112 ± 19 µM | (3.4 ± 0.2-fold) |  |  |  |  |  |  | 
2 | CCOc1ccc(C(=O)/C=C/C(=O)O)cc1 [2.7] | 27 ± 1 µM | (8.9 ± 0.5-fold) | 26 ± 1 µM | (9.5 ± 0.4-fold) | 25.9 ± 0.4 µM | (31.2 ± 0.6-fold) | 33 ± 6 µM | (8 ± 1-fold) |  |  |  |  |  |  | 
3 | COc1ccc(/C=C/C(=O)O)cc1 [2.12] |  |  |  |  | 126 ± 9 µM | (6.7 ± 0.3-fold) |  |  | Inactive | Inactive | Inactive |  |  |  | 
4 | O=C(O)/C=C/C(=O)c1cccc(Cl)c1 [2.16] |  |  |  |  | 34 ± 7 µM | (8.2 ± 0.5-fold) |  |  | Inactive | Inactive | Inactive |  |  |  | 
5 | COc1ccc(/C=C(/C(=O)O)C(F)(F)F)cc1 [2.19] | 55 ± 19 µM | (2.6 ± 0.3-fold) | 108 ± 22 µM | (3.2 ± 0.4-fold) | 86 ± 8 µM | (21 ± 1-fold) | 55 ± 8 µM | (3.5 ± 0.1-fold) |  |  |  |  |  |  | 
6 | O=C(O)CCCC#Cc1ccccc1 [2.27] |  |  |  |  | 106 ± 5 µM | (25.0 ± 0.8-fold) | 129 ± 11 µM | (22.5 ± 1.5-fold) | Inactive | Inactive |  |  |  |  | 
7 | O=C(O)/C=C/C(=O)c1ccc(F)cc1F [2.28] | 10 ± 3 µM | (1.7 ± 0.1-fold) |  |  | 51 ± 9 µM | (11.0 ± 0.5-fold) |  |  |  | Inactive | Inactive |  |  |  | 
8 | O=C(O)COc1ccccc1Cc1ccccc1 [2.43] |  |  |  |  | 47 ± 3 µM | (17.4 ± 0.3-fold) |  |  | Inactive | Inactive | Inactive |  |  |  | 
9 | O=C(O)c1coc(-c2cccc(Cl)c2)c1 [3.2, 5-(3-Chlorophenyl)furan-3-carboxylic acid] | 26 ± 5 µM | (2.1 ± 0.2-fold) | 11 ± 2 µM | (1.7 ± 0.1-fold) | 32 ± 2 µM | (3.2 ± 0.2-fold) | 14 ± 5 µM | (2.1 ± 0.2-fold) |  |  |  |  |  |  | 
10 | O=C(O)/C=C/C(=O)c1ccccc1 [4.1, (E)-4-Oxo-4-phenylbut-2-enoic acid] |  |  |  |  | 62 ± 2 µM | (26 ± 2-fold) |  |  | Inactive | Inactive | Inactive |  |  |  | 
11 | Cc1ccccc1C(=O)/C=C/C(=O)O [4.2, (E)-4-Oxo-4-(o-tolyl)but-2-enoic acid] | 31 ± 7 µM | (2.4 ± 0.3-fold) | 39 ± 3 µM | (3.8 ± 0.4-fold) | 32 ± 1 µM | (20 ± 1-fold) | 50 ± 4 µM | (7 ± 2-fold) |  |  |  |  |  |  | 
12 | Cc1cccc(C(=O)/C=C/C(=O)O)c1 [4.3, (E)-4-Oxo-4-(m-tolyl)but-2-enoic acid] | 19 ± 8 µM | (3.1 ± 0.6-fold) | 22 ± 5 µM | (3.4 ± 0.4-fold) | 38 ± 1 µM | (19 ± 1-fold) | 30 ± 5 µM | (4.7 ± 0.5-fold) |  |  |  |  |  |  | 
13 | Cc1ccc(C(=O)/C=C/C(=O)O)cc1 [4.4, (E)-4-Oxo-4-(p-tolyl)but-2-enoic acid] | 28 ± 3 µM | (3.4 ± 0.4-fold) | 27 ± 9 µM | (3.4 ± 0.7-fold) | 37 ± 1 µM | (17.5 ± 0.9-fold) | 35 ± 1 µM | (5.3 ± 0.2-fold) |  |  |  |  |  |  | 
14 | O=C(O)/C=C/C(=O)c1ccc(Cl)cc1 [4.5, (E)-4-Oxo-4-(4-chlorophenyl)but-2-enoic acid] | 46 ± 7 µM | (7 ± 2-fold) | 40 ± 3 µM | (3.1 ± 0.3-fold) | 30 ± 4 µM | (12 ± 2-fold) | 46 ± 1 µM | (4.0 ± 0.2-fold) |  |  |  |  |  |  | 
15 | O=C(O)C(c1ccccc1)(c1ccccc1)c1ccccc1 [compound 19] |  |  |  |  |  |  |  |  |  | Inactive | Inactive | Inverse agonist | (41 ± 5% remain.) | 36 µM | Inactive
16 | O=C(O)c1ccc(OCc2ccccc2)cc1 [compound 22] | 95 ± 9 µM | (8.8 ± 0.5-fold) |  |  | 136 ± 19 µM | (28 ± 2-fold) |  |  |  | Inactive | Inactive |  |  |  | 
17 | CSc1nccn1-c1ccc(C(=O)O)cc1 [compound 30] | 185 ± 16 µM | (2.5 ± 0.4-fold) | 162 ± 31 µM | (2.2 ± 0.3-fold) | 53 ± 5 µM | (2.4 ± 0.1-fold) |  |  |  |  | Inactive |  |  |  | 
18 | O=C(O)c1ccc(Oc2ccccc2)cc1 [compound 44] | 105 ± 28 µM | (18 ± 3-fold) |  |  | 99 ± 12 µM | (38 ± 3-fold) |  |  |  | Inactive | Inactive |  |  |  | 
19 | O=C(O)c1ccc(-c2cccc(F)c2)o1 [compound 53] | 194 ± 54 µM | (5 ± 1-fold) | 53 ± 10 µM | (1.9 ± 0.1-fold) | 126 ± 17 µM | (14 ± 1-fold) | 54 ± 9 µM | (2.2 ± 0.13-fold) |  |  |  |  |  |  | 
20 | N#Cc1c(F)c(F)cc(C(=O)O)c1F [compound 58] |  |  |  |  | 39 ± 3 µM | (9.6 ± 0.5-fold) |  |  | Inactive | Inactive | Inactive |  |  |  | 
21 | CCc1c(C(=O)O)cnn1-c1ccccc1 [compound 78] | 112 ± 44 µM | (2.0 ± 0.1-fold) |  |  | 237 ± 37 µM | (6 ± 1-fold) | 166 ± 10 µM | (1.6 ± 0.1-fold) |  | Inactive |  |  |  |  | 
